This is an account of results in patent EP4711366A1, “PYRIMIDO MACROHETEROCYCLIC COMPOUND AS WEE1-YES DUAL-TARGET INHIBITOR AND USE THEREOF” (Mindrank AI Ltd., priority 2023, dated 2024).

Data set [1] can be described thus: Solid-state stability study of polymorphs. The class given is physicochemical. The settings on record: for Initial purity (%): HPLC purity before storage.
A short description of data set [2]: Equilibrium solubility study of polymorphs in different vehicles. The class given is physicochemical. The note with it: 37±2 °C, suspension ~10 mg/mL; for Equilibrium solubility: 24 h, 1440 min, in mg/mL (unit assumed). The method, then:
The equilibrium solubility of the crystal forms A, B, C, and D of compound (IE) was tested in water (H2O), fasted state simulated gastric fluid (FaSSGF), fasted state simulated intestinal fluid (FaSSIF), and fed state simulated intestinal fluid (FeSSIF). In the test, the solids were suspended in corresponding buffers to formulate suspensions (~10 mg/mL) and mixed at 37±2 °C. After 24 h, samples of the suspensions were taken. The supernatant was filtered, and the concentration was determined.

The subject of data set [3] is Human ovarian cancer OVCAR-3 cells. Nature of the data set: In vivo efficacy study against OVCAR-3 tumors (subcutaneous tumor-bearing model). Details: species or system BALB/c nude mice. The note with it: 80mg/kg, PO, QD×28. The method, then:
Human ovarian cancer OVCAR-3 cells were subcultured and expanded in an RPMI-1640 culture medium containing 20% FBS and 0.01 mg/mL bovine insulin. BALB/c nude mice aged 6-8 weeks were taken and each subcutaneously injected with 5 × 10^6 cells to establish a tumor-bearing model. The tumor volume was monitored, and when the tumor volume reached about 150 mm^3, the animals were randomized into 5 groups according to body weight and tumor volume. The animals were given, by oral gavage, the vehicle or compounds to be tested (ZN-c3 and IE) once daily for a total of 28 days. During the period of administration, the tumor volume and the animal body weight were measured twice a week, and the animals' states were observed daily. At the endpoint, the animals were euthanized with carbon dioxide, and the subcutaneous tumors were isolated and weighed.
The data calculation formulae are shown below: The tumor volume (TV) was calculated using the formula 1/2×axb^2, where a and b represent the length and width measurements of the tumor, respectively.
The tumor growth inhibition rate (%TGITV) was calculated using the formula (1 - TVT/TVC) × 100%, where TVc represents the average tumor volume of the negative control group, and TVT represents the average tumor volume of the treatment group.
The relative tumor volume (RTV) was calculated using the formula Vt/V0, where V0 represents the tumor volume at the time of grouping, and Vt represents the tumor volume at each measurement.

Setting [4] is: 25 °C/60% RH, 7 days (long-term).
The mark [5] stands for this setting: 40 °C/75% RH, 7 days (accelerated).
Where [6] appears, read: 60 °C, 7 days (high-temperature, RH < 30%).
[7] abbreviates: high-temperature and accelerated conditions for 7 days.
Setting [8] is: long-term conditions for 7 days.

In brackets after ≈: the same amount, converted by molar mass.

As for `Cc1cc(Nc2ncc3c(=O)n4n(c3n2)-c2cccc(n2)[C@](C)(O)CC/C=C\C4)ccc1OC1CCN(C)CC1` [Crystal form C of compound IE], the Crystal form result in data set [1] (setting [4]), in data set [1] (setting [5]) and in data set [1] (setting [6]) was “Crystal form C” each time. In addition, the “Purity (%)” value is 98.75% in data set [1] (setting [4]), 98.73% in data set [1] (setting [5]) and 98.72% in data set [1] (setting [6]). Also, the “Initial purity (%)” value in data set [1] stood at 98.74%. In addition, the “solid-state stability (in words)” value in data set [1] (setting [7]) and in data set [1] (setting [8]) was “remained stable” each time. For the same molecule, the Equilibrium solubility was greater than 10 in data set [2] (FaSSGF), 0.710 in data set [2] (FaSSIF) and 1.299 in data set [2] (FeSSIF).

Turning to `Cc1cc(Nc2ncc3c(=O)n4n(c3n2)-c2cccc(n2)[C@](C)(O)CC/C=C\C4)ccc1OC1CCN(C)CC1` [Crystal form B of compound IE], the Crystal form entry in data set [1] (setting [4]), in data set [1] (setting [5]) and in data set [1] (setting [6]) was “Crystal form B” each time. The “Purity (%)” value came to 98.01% in data set [1] (setting [4]), 98.25% in data set [1] (setting [5]) and 98.24% in data set [1] (setting [6]). Besides, the “Initial purity (%)” value in data set [1] is 97.97%. In addition, the “solid-state stability (in words)” value in data set [1] (setting [7]) and in data set [1] (setting [8]) was “remained stable” throughout. In addition, the Equilibrium solubility in data set [2] (FaSSGF) is listed as greater than 10; in data set [2] (FaSSIF), 1.23; in data set [2] (FeSSIF), 2.07.

`C=CCn1c(=O)c2cnc(Nc3ccc(N4CCN(C)CC4)cc3)nc2n1-c1cccc(C(C)(C)O)n1` [AZD-1775, reference compound]: in data set [3], the “Relative tumor inhibition (%) Day 28” value amounted to 58.28% and the “Relative tumor volume Day 28” value stood at 2.18.

As a reminder, the thermodynamic solubility is the concentration in solution at equilibrium with solid. As to `Cc1cc(Nc2ncc3c(=O)n4n(c3n2)-c2cccc(n2)[C@](C)(O)CC/C=C\C4)ccc1OC1CCN(C)CC1` [Crystal form D of compound IE], the Crystal form result in data set [1] (setting [4]), in data set [1] (setting [5]) and in data set [1] (setting [6]) was “Crystal form D” throughout. The “Purity (%)” value in data set [1] (setting [4]) is 97.82%; in data set [1] (setting [5]), 97.87%; in data set [1] (setting [6]), 97.74%. In addition, the “Initial purity (%)” value in data set [1] is on record as 97.79%. Further, the “solid-state stability (in words)” value in data set [1] (setting [7]) and in data set [1] (setting [8]) was “remained stable” throughout. For the same molecule, the values for the Equilibrium solubility in data set [2] (FaSSIF) and in data set [2] (FeSSIF) were 0.81 and 0.11, respectively. For the same molecule, the thermodynamic solubility at 24 h in data set [2] (fassgf) is 8440 µg/mL (≈ 15.6 mM).

For the molecule `Cc1cc(Nc2ncc3c(=O)n4n(c3n2)-c2cccc(n2)[C@](C)(O)CC/C=C\C4)ccc1OC1CCN(C)CC1` [Crystal form A of compound IE], the Crystal form result was “Crystal form A” in data set [1] (setting [4]), “Crystal form E” in data set [1] (setting [5]) and “Crystal forms A+E” in data set [1] (setting [6]). Moreover, the “Purity (%)” value in data set [1] (setting [4]) was 98.01%; in data set [1] (setting [5]), 98.11%; in data set [1] (setting [6]) it was 98.06%. In addition, the “Initial purity (%)” value in data set [1] is 98.08%. Further, the “solid-state stability (in words)” value in data set [1] (setting [8]) was “remained stable”. The results for the Equilibrium solubility in data set [2] (FaSSGF), in data set [2] (FaSSIF) and in data set [2] (FeSSIF) were greater than 10, 1.73 and 0.27, respectively.
